In patent US9249147B2, “Tyrosine kinase inhibitors” (CHEMBRIDGE CORPORATION, priority 2008, dated 2016):
pIC50: −log10 of the molar value. In brackets after ≈: the same amount, converted by molar mass. Counter-ions that a name gives are not always drawn. Like-named read-outs stand apart in the source and are kept apart here. Values belong to the compound of their own block, whether it stands above or below them.

Columns and labels:
RET = RET (Homo sapiens, UniProt P07949); assay: RET cell free kinase assay (Table 3A); assay type: biochemical
[1] = Liver microsome stability, Mouse LM-P1 / MLM; assay type: in vitro ADME; details: for CLint scaled: Table 3A, mouse liver microsomes, read-out: CL MLM; for half-life / microsomal CLint: mouse, liver microsomes; for microsomal CLint: read-out: Mouse LM-P1 CL
SUDHL-1 = assay: Cellular IC50, SUDHL-1; assay type: cell-based; details: Homo sapiens, SU-DHL-1; Table 3A
Text: (§1) Cell proliferation inhibition assays were run for compound (II) with the five target NPM-ALK-dependent ALCL cell lines (Karpas 299, SuDHL-1, JB6, SupM2, UConn) and 12 unrelated cell lines (HEK293, CHO-K1, MCF7, HepG2, H292, H520, H1581, H596, H522, CHA-GO-K1, UMC-11, SK-MES1). […] The pronounced target cell-killing effect is also observed (molecular mechanisms to be determined).

U937 = assay: Cellular IC50, U937; assay type: cell-based; details: Homo sapiens, U-937; Table 3A
[2] = Liver microsome stability, Human LM-P1 / HLM; assay type: in vitro ADME; details: for CLint scaled: Table 3A, human liver microsomes, read-out: CL HLM; for half-life / microsomal CLint: human, liver microsomes; for microsomal CLint: read-out: Human LM-P1 CL
Text: Metabolic stability of compound (II) (labeled as CRL241 below) in vitro has been tested in a standard in vitro microsomal stability assay in human microsomes (Cerep Study 13170).

[3] = Aqueous Solubility (PBS, pH 7.4); assay type: physicochemical; details: pH 7.4, 2.0E−04 M; for solubility: pH 7.4, PBS
[4] = Partition Coefficient (Log D, n-octanol/PBS, pH 7.4); assay type: physicochemical; details: 1.0E−04 M; for logD: read-out: Partition Coefficient Log D, Weighed Average of Three Replicates
A549 cells [5] = assay: Prolonged inflammation (PMA induced MMP-1 or IL-8) in A549 cells; assay type: cell-based; details: FIG. 17
Text: Panel 3: All the above were done on the transcriptional level (i.e., MMP-1, IL-8, etc. expressions). For IL-8, this was verified on the translational (i.e., protein expression) level as well.

MMP-1 in A549 cells = assay: PMA induced MMP-1 production in A549 cells; assay type: cell-based; details: one hour treatment
IL-8 in A549 cells = assay: PMA-induced IL-8 levels in A549 cells, with or without RU-486; assay type: cell-based; details: 4 hr treatments
PC-12 cells = assay: PC-12 cell cytotoxicity; assay type: cell-based; details: FIG. 13
PC12 cells = assay: NGF-stimulated neurite outgrowth in PC12 cells; assay type: cell-based; details: 100 nM compound, NGF 100 ng/ml, 6 days
Protocol: In chronic pain states, neurons form outgrowths which sensitize them to pain. NGF-induced neurite outgrowth was used as an assay for TrkA-dependent chronic/neuropathic pain activity.
Methods: PC12 cells were grown in 2% FBS and treated with or without NGF (100 ng/ml) 30 min before adding of vehicle or TRKA compounds for 6 days, changing media on day 3. On day 6 cells were fixed and stained for SRB before photographed for neurite outgrowth.

FKBP51 (GR pathway) = assay: GR specific anti-inflammatory marker FKBP51 in A549 cells; assay type: cell-based
A549 cells [6] = assay: TNFα-induced acute inflammation in A549 cells; assay type: cell-based; details: 100 nM Dex or 1 μM compound (VI)
Karpas299 = assay: Cell proliferation inhibition, ALCL line Karpas299; assay type: cell-based; details: Homo sapiens, KARPAS-299; Table 3A; read-out: Cellular IC50 K-299
Text: The IL-3-dependent lymphoid cell line BaF3 or BaF3 rendered IL-3-independent by engineered expression of NPM-ALK were used in parallel to test each candidate inhibitor. Control wells contained DMSO solvent without test compound. Specific inhibition of ALK signaling is indicated in the assay by impairment of NPM-ALK-expressing BaF3 cell growth without alterations in the growth of parental BaF3. This colorimetric assay of cell proliferation and viability is based upon reduction of the yellow monotetrazolium salt XTT to a water-soluble orange formazan dye, a reaction catalyzed by mitochondrial dehydrogenases in living cells only (Cell Proliferation Kit II, Cat. #1 465 015, Roche Biochemicals). In addition to testing compounds for their ability to impair the growth of BaF3 cells engineered to express NPM-ALK, the NPM-ALK-positive human lymphoma cell line Karpas-299 (Deutsche Sammlung von Mikroorganismen and Zellkulturen GmbH (DSMZ) no. ACC 31), the human BCR-ABL-positive chronic myeloid leukemia cell line K562 (American Type Culture Collection (ATCC) no. CCL-243), and the human T-cell leukemia line Jurkat (DSMZ no. ACC 282) were tested in these assays.
Each compound stock in 100% DMSO was first diluted using 8% DMSO/culture medium to produce a working stock of 250 μM compound. This working stock was then used to perform serial 1:1 dilutions (i.e., 125 μM, 62.5 μM, 31.25 μM, 15.625 μM, 7.8125 μM, and 3.90625 μM) using DMSO-free culture medium. Twenty (20) μL of each of these dilutions was then added to the cells (2×10^4 cells in 80 μL culture medium per 96-well) to obtain the final test compound concentrations (i.e., 25 μM, 12.5 μM, 6.25 μM, 3.125 μM, 1.5625 μM, and 0.78125 μM).
as §1

TRKA = TRKA (Homo sapiens, UniProt P04629); assay: TRKA kinase assay; assay type: biochemical; parameters: 6×His- or GST-tagged kinase domain fragments of the corresponding RTKs expressed in baculovirus system; host or cells: baculovirus system; details: Table 3A; read-out: Cell Free IC50 TRKA
IRK = target: T1, IRK (Homo sapiens, UniProt P06213); assay: IRK (insulin receptor kinase) assay; assay type: biochemical; details: Table 3A; read-out: Cell Free IC50 IRK
T1 construct: 6×His- or GST-tagged kinase domain fragments of the corresponding RTKs expressed in baculovirus system; host or cells: baculovirus system
In short: (§2)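 The AlphaScreen PT66 format of the NPM-ALK assay was applied with minor modifications to commercial recombinant His/GST-tagged kinase domains. Compound (0.078125–40 μM) was incubated 30 min at RT with 10 μM ATP and biotinylated poly-GT in Tris pH 7.5/MgCl2/MnCl2/DTT buffer, then beads 60 min. Read at 520–680 nm; IC50 and Ki derived.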

ALK = ALK (Homo sapiens, UniProt Q9UM73); assay: ALK kinase assay (Kinase-Glo / AlphaScreen, purified NPM-ALK); assay type: biochemical; parameters: fused to the complete intracytoplasmic portion of ALK containing the functional tyrosine kinase domain; 6xHis; made in house; host or cells: insect cells; the other entry of the earlier key: NPM1 (P06748, Nucleophosmin);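 further: recombinant baculovirus-expressed ALK kinase domain, activity read either as leftover ATP by Kinase-Glo luminescence or as poly(Glu-Tyr) phosphorylation by anti-phosphotyrosine AlphaScreen proximity signal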
IGF1R = target: T2, IGF1R (Homo sapiens, UniProt P08069); assay: IGF1R kinase assay; assay type: biochemical; details: Table 3A; read-out: Cell Free IC50 IGF1R
T2 construct: 6×His- or GST-tagged kinase domain fragments of the corresponding RTKs expressed in baculovirus system; host or cells: baculovirus system
In short: as §2

[7] = Liver microsome stability, Rat LM-P1; assay type: in vitro ADME; details: liver microsomes; for microsomal CLint: read-out: Rat LM-P1 CL
[8] = Caco-2, pH 6.5
[9] = Caco-2 (TC7) A-B Permeability test (pH 6.5/7.4); details: A-B Permeability (TC7, pH 6.5/7.4), test concentration 1.0E−05 M
[10] = Tables 9C, 9D, read-out: Solubility Mean
[11] = individual data, read-out: Solubility 1st/2nd
[12] = Table 8D, read-out: GTx-ALK IC50

ALK, sequence (Q9UM73 with tags, fused parts or gaps): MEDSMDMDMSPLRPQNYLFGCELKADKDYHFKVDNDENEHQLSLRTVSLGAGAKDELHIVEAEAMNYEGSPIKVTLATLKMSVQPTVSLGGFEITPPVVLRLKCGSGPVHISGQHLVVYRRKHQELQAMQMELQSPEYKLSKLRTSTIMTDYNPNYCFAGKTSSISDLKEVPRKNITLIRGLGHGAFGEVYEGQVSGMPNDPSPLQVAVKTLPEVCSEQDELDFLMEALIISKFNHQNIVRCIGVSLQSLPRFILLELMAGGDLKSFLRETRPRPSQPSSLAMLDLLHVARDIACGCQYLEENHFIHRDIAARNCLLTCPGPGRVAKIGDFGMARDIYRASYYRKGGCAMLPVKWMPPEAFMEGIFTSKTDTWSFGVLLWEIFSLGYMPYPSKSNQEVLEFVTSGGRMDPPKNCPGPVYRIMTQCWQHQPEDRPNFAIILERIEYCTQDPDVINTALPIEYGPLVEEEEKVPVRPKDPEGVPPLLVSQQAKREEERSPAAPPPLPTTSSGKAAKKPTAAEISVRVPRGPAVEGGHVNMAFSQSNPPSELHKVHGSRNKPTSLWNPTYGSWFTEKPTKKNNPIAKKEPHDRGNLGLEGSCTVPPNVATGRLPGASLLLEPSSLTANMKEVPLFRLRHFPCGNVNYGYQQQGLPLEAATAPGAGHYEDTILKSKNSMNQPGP
TRKA, sequence (P04629 510-781 limits assumed): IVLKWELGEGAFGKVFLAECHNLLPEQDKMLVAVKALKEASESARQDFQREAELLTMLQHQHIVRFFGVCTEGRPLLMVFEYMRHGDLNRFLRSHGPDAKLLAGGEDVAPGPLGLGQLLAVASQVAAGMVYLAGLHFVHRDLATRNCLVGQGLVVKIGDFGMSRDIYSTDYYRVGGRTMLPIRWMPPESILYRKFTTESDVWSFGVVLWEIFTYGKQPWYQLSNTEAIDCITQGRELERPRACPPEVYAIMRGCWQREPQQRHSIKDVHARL
T1 sequence (P06213 1023-1298 limits assumed): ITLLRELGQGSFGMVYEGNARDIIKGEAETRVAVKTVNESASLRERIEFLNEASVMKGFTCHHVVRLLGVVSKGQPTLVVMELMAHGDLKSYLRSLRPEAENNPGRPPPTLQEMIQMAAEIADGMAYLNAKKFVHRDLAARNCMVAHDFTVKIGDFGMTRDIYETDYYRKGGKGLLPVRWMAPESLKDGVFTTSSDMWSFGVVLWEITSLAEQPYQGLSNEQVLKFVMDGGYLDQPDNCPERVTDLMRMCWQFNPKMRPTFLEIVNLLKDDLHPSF
RET, sequence (P07949 29-1114): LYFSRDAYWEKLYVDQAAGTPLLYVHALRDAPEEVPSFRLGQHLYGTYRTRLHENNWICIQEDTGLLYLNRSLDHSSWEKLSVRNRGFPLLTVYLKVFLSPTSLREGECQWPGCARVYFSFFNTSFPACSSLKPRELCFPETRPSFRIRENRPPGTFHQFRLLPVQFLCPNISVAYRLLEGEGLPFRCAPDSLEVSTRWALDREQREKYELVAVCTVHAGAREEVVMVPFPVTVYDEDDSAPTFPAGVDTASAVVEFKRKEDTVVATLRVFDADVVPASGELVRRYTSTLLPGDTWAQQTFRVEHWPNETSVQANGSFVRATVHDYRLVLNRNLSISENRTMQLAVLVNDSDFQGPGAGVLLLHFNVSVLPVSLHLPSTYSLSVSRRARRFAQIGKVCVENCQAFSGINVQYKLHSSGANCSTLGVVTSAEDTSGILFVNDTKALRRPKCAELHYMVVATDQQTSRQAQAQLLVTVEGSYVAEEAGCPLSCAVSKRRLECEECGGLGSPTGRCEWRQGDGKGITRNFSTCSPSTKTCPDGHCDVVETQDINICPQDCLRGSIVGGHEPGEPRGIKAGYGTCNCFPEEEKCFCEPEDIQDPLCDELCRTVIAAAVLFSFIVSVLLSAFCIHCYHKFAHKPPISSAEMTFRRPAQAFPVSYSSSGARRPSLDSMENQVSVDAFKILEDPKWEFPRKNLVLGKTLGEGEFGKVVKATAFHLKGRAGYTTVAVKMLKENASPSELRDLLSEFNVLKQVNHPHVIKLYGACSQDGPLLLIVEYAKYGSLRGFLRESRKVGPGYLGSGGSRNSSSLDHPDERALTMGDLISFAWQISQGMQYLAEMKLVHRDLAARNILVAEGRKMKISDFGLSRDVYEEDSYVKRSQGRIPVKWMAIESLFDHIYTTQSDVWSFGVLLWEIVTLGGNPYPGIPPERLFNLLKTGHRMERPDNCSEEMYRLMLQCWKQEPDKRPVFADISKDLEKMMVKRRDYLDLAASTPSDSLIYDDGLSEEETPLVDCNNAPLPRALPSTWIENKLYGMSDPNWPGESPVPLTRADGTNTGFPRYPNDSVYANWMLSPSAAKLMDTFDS
T2 sequence (P08069 999-1274 limits assumed): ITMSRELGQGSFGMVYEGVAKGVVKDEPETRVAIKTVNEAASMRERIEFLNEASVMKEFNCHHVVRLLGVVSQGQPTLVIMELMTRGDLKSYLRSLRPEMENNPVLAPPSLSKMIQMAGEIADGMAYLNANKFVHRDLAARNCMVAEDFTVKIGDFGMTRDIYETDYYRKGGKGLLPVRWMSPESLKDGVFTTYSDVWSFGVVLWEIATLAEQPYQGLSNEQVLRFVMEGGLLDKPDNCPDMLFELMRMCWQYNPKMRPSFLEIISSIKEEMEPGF

SMILES: C[C@@H](Cc1c(F)c(F)cc(F)c1F)Nc1cc[nH]c(=O)c1-c1nc2cc3c(cc2[nH]1)CN(CCN(C)C)C3=O
pIC50 (RET): 8.40
CLint scaled [1]: 82.2 mL/min/kg
pIC50 (SUDHL-1): 6.99
pIC50 (U937): < 5.52
CLint scaled [2]: < 5.8 mL/min/kg

SMILES: CC/C(=C(/CC)c1ccc(O)cc1)c1ccc(O)cc1 [Diethylstilbestrol]
Solubility 1st/2nd ([3]; individual data): 8.59 μm
solubility [3, 10]: 8.6 µM (≈ 2.31 µg/mL)
solubility [3, 11]: 8.6 µM (≈ 2.31 µg/mL)
logD [4]: > 5

SMILES: COC(=O)[C@@]1(O)C[C@H]2O[C@]1(C)n1c3ccccc3c3c4c(c5c6ccccc6n2c5c31)C(=O)NC4 [K252a, reference compound]
Anti-inflammatory effect on prolonged inflammation (PMA induced MMP-1 or IL-8) (A549 cells [5]): demonstrated anti-inflammatory activity which was not reversible by GR antagonist

SMILES: COCCc1ccc(OCC(O)CNC(C)C)cc1 (centres unmarked) [Metoprolol tartrate]
Solubility 1st/2nd ([3]; individual data): 188.93 μm
solubility [3, 10]: 190 µM
solubility [3, 11]: 190 µM
logD [4]: -0.46

SMILES: C[C@@H](Cc1c(F)c(F)cc(F)c1F)Nc1cc[nH]c(=O)c1-c1nc2cc3c(cc2[nH]1)CN(CCN1CCCC1)C3=O [compound (III)]
Concentration required for complete inhibition of PMA induced MMP-1 production (MMP-1 in A549 cells): ~1 µM
Effect of GR antagonist RU-486 on inhibition of PMA-induced IL-8 levels (IL-8 in A549 cells): not affected or possibly were more potent
PC-12 cell cytotoxicity (PC-12 cells): lack of PC-12 cell cytotoxicity
NGF-stimulated neurite outgrowth (PC12 cells): inhibited the neurite outgrowth
Activation of GR pathway (FKBP51 marker) (FKBP51 (GR pathway)): did not active the GR pathway

SMILES: C[C@@H](Cc1cc(F)cc(F)c1F)Nc1cc[nH]c(=O)c1-c1nc2cc3c(cc2[nH]1)CN(CCN1CCCC1)C3=O [compound (VII)]
PC-12 cell cytotoxicity (PC-12 cells): lack of PC-12 cell cytotoxicity
NGF-stimulated neurite outgrowth (PC12 cells): inhibited the neurite outgrowth

SMILES: C[C@@H]1C[C@H]2[C@@H]3CCC4=CC(=O)C=C[C@]4(C)[C@@]3(F)[C@@H](O)C[C@]2(C)[C@@]1(O)C(=O)CO [dexamethasone, reference compound]
Inhibition of PMA induced MMP-1 production (MMP-1 in A549 cells): potently inhibit PMA induced MMP-1 production in the nM range
Effect of GR antagonist RU-486 on inhibition of PMA-induced IL-8 levels (IL-8 in A549 cells): reversible by GR antagonist RU-486
TNFα-induced acute inflammation (A549 cells [6]): partially reversible

SMILES: Cc1ccc(F)cc1C[C@H](C)Nc1cc[nH]c(=O)c1-c1nc2cc3c(cc2[nH]1)C(=O)N(CCN1CCCC1)C3 [drawing 360]
CLint scaled [1]: 52.9 mL/min/kg
pIC50 (Karpas299): 7.09
pIC50 (U937): < 5.52
pIC50 (TRKA): 8.70
CLint scaled [2]: < 5.8 mL/min/kg
pIC50 (IRK): 6.60
pIC50 (ALK; Table 3A, read-out: Cell Free IC50 ALK): 8.70

SMILES: Cc1ccc(F)cc1C[C@H](C)Nc1cc[nH]c(=O)c1-c1nc2cc3c(cc2[nH]1)C(=O)N(CCN1CCCC1)C3 [drawing 368]
half-life [7]: 8.71 min
microsomal CLint [7]: 79.6 µL/min/mg
half-life [1]: 13.1 min
microsomal CLint [1]: 52.9 µL/min/mg
half-life [2]: > 20 min
microsomal CLint [2]: < 5.8 µL/min/mg
pIC50 (ALK; [12]): 8.70

SMILES: CC[C@]1(O)C[C@@H]2CN(CCc3c([nH]c4ccccc34)[C@@](C(=O)OC)(c3cc4c(cc3OC)N(C)[C@H]3[C@@](O)(C(=O)OC)[C@H](OC(C)=O)[C@]5(CC)C=CCN6CC[C@]43[C@@H]65)C2)C1 [vinblastin]
Mean Permeability [8]: 0.0 10^−6 cm/s
Permeability 1st [8]: 0.82 10^−6 cm/s
Permeability 2nd [8]: 0.02 10^−6 cm/s
Present Recovery 1st ([9]; 1st replicate): 73%
Present Recovery 2nd ([9]; 2nd replicate): 57%
Mean Recovery ([9]; mean of n = 2): 65%

Second part, the compound after the results:

Partition Coefficient Log D, Weighed Average of Three Replicates [4]: 2.34
SMILES: O=C1NC(=O)C(c2ccccc2)(c2ccccc2)N1 [Phenytion]

Solubility 1st/2nd ([3]; individual data): 186.51 μm
solubility [3, 10]: 184 µM (≈ 151 µg/mL)
solubility [3, 11]: 181 µM (≈ 149 µg/mL)
logD [4]: 1.23
SMILES: CO[C@H]1/C=C/O[C@@]2(C)Oc3c(C)c(O)c4c(O)c(c(/C=N/N5CCN(C)CC5)c(O)c4c3C2=O)NC(=O)/C(C)=C\C=C\[C@H](C)[C@H](O)[C@@H](C)[C@@H](O)[C@@H](C)[C@H](OC(C)=O)[C@@H]1C [Rifampicin]

CLint scaled [1]: 46 mL/min/kg
pIC50 (IGF1R): 6.34
pIC50 (Karpas299): 6.81
pIC50 (SUDHL-1): 7.52
pIC50 (U937): < 5.52
pIC50 (TRKA): 8.52
CLint scaled [2]: < 5.8 mL/min/kg
pIC50 (IRK): 6.28
SMILES: Cc1ccc(F)cc1C[C@H](C)Nc1cc[nH]c(=O)c1-c1nc2cc3c(cc2[nH]1)CN(CCN(C)C)C3=O [drawing 361]

half-life [7]: 5 min
microsomal CLint [7]: 138 µL/min/mg
half-life [1]: 22.1 min
microsomal CLint [1]: 31.4 µL/min/mg
half-life [2]: > 120 min
microsomal CLint [2]: < 5.8 µL/min/mg
pIC50 (ALK; [12]): 8.30
SMILES: C[C@@H](Cc1cc(F)cc(F)c1F)Nc1cc[nH]c(=O)c1-c1nc2cc3c(cc2[nH]1)CN(CCN1CCCC1)C3=O [drawing 369]

half-life [7]: 4.36 min
microsomal CLint [7]: 159 µL/min/mg
half-life [1]: 29 min
microsomal CLint [1]: 23.9 µL/min/mg
half-life [2]: > 120 min
microsomal CLint [2]: < 5.8 µL/min/mg
pIC50 (ALK; [12]): 8.52
SMILES: C[C@@H](Cc1c(F)c(F)cc(F)c1F)Nc1cc[nH]c(=O)c1-c1nc2cc3c(cc2[nH]1)CN(CCN1CCCC1)C3=O [drawing 370]
